Measured values: US8299079B2, “Preparations and methods for ameliorating or reducing presbyopia” (priority 2009, dated 2012)
“And” between values parts separate entries of the source, which are not always exact repeats. Equal entries are not always repeated.

Legend:
[1] = test system: pupil diameter of patients suffering from presbyopia; assay: Preliminary evaluation: pupil diameter after pilocarpine alone or with brimonidine; format: in vivo, human
Method: (§1) The effect of pilocarpine alone or in combination with brimonidine on near visual acuity (VA) for patients suffering from presbyopia was evaluated. Initially, 10 patients were selected for preliminary evaluation. Each patient was administered with one drop of a formulation containing 0.25%, 0.5%, or 1.0% pilocarpine with or without one drop of a formulation containing 0.2% brimonidine. Thus, the following six dosages were initially tested: • 1. 0.25% pilocarpine, • 2. 0.5% pilocarpine, • 3. 1.0% pilocarpine, • 4. 0.25% pilocarpine and 0.2% brimonidine, • 5. 0.5% pilocarpine and 0.2% brimonidine, and • 6. 1.0% pilocarpine and 0.2% brimonidine.

[2] = test system: near visual acuity (VA) for patients suffering from presbyopia; assay: Preliminary evaluation: near visual acuity after pilocarpine alone or with brimonidine; format: in vivo, human
Method: as §1

With `Brc1c(NC2=NCCN2)ccc2nccnc12` [brimonidine] the “effect on the pupil (potentiation of pilocarpine)” value ([1]; brimonidine combined with pilocarpine) was “potentiates the effect of pilocarpine on the pupil”.

For `CC[C@@H]1C(=O)OC[C@@H]1Cc1cncn1C` [Pilo Alone, pilocarpine], the “duration of effect on visual acuity (wear out)” value ([2]; 1, 2, 4 hrs after administration) was “appears to wear out fairly quickly”, the “nVA” value ([2]; Pilo alone 0.25%, 2 hrs) was 3 J and 5 J and 6 J and the “nVA” value ([2]; Pilo alone 0.5%, 1 hr) was 3 J and 6 J and 5 J. For the same compound, the “nVA” value ([2]; Pilo alone 0.5%, 2 hrs) was 5 J and 3 J, the “nVA” value ([2]; Pilo alone 0.5%, 4 hrs) was 5 J and 3 J and the Pupil ([1]; Pilo alone 0.25%, 1 hr) was 3 and 3.5 and 2.5 and 3.3. The Pupil ([1]; Pilo alone 0.25%, 2 hrs) was 4 and 3.5 and 3, the Pupil ([1]; Pilo alone 0.25%, 4 hrs) was 4 and the Pupil ([1]; Pilo alone 0.5%, 1 hr) was 2.5 and 3.8 and 3. For the same compound, the Pupil ([1]; Pilo alone 0.5%, 2 hrs) was 3 and 4 and 2.5 and 3.3, the Pupil ([1]; Pilo alone 0.5%, 4 hrs) was 3.3 and 4 and 3 and 4.2 and the Pupil ([1]; Pilo alone 1%, 1 hr) was 2.5 and 1.5 and 3. The Pupil ([1]; Pilo alone 1%, 2 hrs) was 3 and 1.5 and 2.5 and the Pupil ([1]; Pilo alone 1%, 4 hrs) was 4 and 2.5 and 3.
